Read-outs that look alike come from different tables or passages of the source.
What was measured:
[1] = biological target: T1, rabbit angiotensin-converting enzyme (ACE) (Oryctolagus cuniculus, UniProt P12822); test: ACE selectivity assay; type: biochemical
T1 construct: purchased Sigma
T1 sequence (P12822 34-1310): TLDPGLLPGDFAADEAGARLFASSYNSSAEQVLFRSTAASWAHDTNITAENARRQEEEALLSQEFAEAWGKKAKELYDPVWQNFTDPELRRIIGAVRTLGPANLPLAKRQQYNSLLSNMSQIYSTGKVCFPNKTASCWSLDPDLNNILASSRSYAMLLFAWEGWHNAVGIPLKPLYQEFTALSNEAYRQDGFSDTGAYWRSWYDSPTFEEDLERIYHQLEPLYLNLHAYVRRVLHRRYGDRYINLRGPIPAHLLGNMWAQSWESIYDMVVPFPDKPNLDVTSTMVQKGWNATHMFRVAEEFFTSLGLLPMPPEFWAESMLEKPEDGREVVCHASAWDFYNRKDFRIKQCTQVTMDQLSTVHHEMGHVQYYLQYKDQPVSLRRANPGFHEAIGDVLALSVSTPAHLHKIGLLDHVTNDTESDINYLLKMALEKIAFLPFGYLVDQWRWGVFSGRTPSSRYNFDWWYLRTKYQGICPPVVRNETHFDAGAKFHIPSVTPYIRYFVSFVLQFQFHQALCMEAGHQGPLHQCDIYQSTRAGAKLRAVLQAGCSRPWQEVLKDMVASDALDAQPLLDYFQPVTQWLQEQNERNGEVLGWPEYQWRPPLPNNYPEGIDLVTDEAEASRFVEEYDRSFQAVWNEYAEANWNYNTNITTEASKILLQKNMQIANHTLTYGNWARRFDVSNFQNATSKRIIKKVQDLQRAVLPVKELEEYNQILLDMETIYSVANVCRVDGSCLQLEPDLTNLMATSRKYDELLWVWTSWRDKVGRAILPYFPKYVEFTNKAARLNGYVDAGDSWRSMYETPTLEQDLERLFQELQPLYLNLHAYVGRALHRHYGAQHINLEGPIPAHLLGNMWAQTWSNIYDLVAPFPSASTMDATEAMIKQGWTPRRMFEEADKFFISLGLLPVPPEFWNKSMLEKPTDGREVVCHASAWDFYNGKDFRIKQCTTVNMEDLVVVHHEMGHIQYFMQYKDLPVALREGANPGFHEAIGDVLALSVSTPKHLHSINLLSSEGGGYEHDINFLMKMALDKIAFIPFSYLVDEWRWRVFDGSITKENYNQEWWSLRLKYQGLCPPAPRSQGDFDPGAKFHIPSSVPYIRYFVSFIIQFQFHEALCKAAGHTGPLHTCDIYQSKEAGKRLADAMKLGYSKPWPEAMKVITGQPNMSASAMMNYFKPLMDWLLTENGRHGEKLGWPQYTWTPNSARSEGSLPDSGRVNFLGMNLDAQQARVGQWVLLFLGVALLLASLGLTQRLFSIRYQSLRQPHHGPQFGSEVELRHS
Procedure: Selectivity of compound inhibition was evaluated against other proteases at concentrations between 0.4 and 200 μM. Activity against rabbit angiotensin-converting enzyme (ACE, Sigma) was assessed using 10 μM fluorogenic substrate Abz-Phe-Arg-Lys(Dnp)-P (Enzo Life Sciences) in 100 mM Tris-HCl pH 7, 50 mM NaCl, 10 μM Zn SO4. Activity against human matrix metalloproteases (MMP)-2 and MMP-9 was assessed in 50 mM HEPES pH 7.5, 10 mM CaCl2, 0.01% Triton X-100 using 4 μM fluorogenic substrate Mca-Pro-Leu-Gly-Leu-Dpa-Ala-Arg-NH2 (Enzo Life Sciences). Activity against MMP-1 and MMP-13 was assessed in 25 mM HEPES pH 7.5, 100 mM NaCl, 100 mM CaCl2, 0.0005% Brij using 7.5 μM fluorogenic substrate Mca-Lys-Pro-Leu-Gly-Leu-Dpa-Ala-Arg-NH2 (Sigma) for MMP-1 and 1.25 μM fluorogenic substrate Mca-Pro-Cha-Gly-Nva-His-Ala-Dpa-NH2 (Millipore) for MMP-13. Activity against human neutrophil elastase (HNE, Enzo Life Sciences) was assessed in 100 mM HEPES pH 7.5, 500 mM NaCl, 0.01% of Triton X-100 using 100 μM fluorogenic substrate MeOSuc-AAPV-AMC (Enzo Life Sciences).

LasB T65I = biological target: T2, LasB T65I (Pseudomonas aeruginosa, UniProt P14756); test: LasB variant inhibition, culture supernatant: T65I; type: biochemical, P. aeruginosa
T2 construct: endogenous in cells; host or cells: P. aeruginosa clinical CF isolate, culture supernatant
Description: Compounds 12 and 16 were discovered as a result of optimizing potency against the LasB protein expressed from the wild-type (WT) reference strain P. aeruginosa PAO1. To understand the relative prevalence of the WT LasB protein versus other variants in clinical respiratory P. aeruginosa strains, the full-length lasB gene was amplified by PCR from 255 clinical isolates (obtained from CF sputum samples). […] Most changes were identified in the mature peptide, however some occurred in the propeptide domain, which could affect LasB processing (marked in italics in Table 4).
LasB inhibition assays were performed using purified LasB enzyme (1 ng/well) for compound screening or using culture supernatants (prepared as described in the ECR assay) for testing LasB variants. Hydrolysis of the fluorogenic peptide substrate 2-aminobenzoyl-Ala-Gly-Leu-Ala-4-nitrobenzylamide (Abz-AGLA-Nba; Peptide International) in 50 mM Tris-HCl (pH 7.4), supplemented with 2.5 mM CaCl2 was followed using an Envision microplate reader (PerkinElmer) at 315 nm excitation and 430 nm emission. […] IC50 values were determined from Hill plots using Dotmatics Studies ELN software. For the mechanism of inhibition studies, hydrolysis rates were measured in the presence of variable concentrations of substrate and inhibitor, and the inhibition constant (Ki) was determined using Dixon plot analysis.[31]

T2 sequence (P14756 198-498, stated change not applied): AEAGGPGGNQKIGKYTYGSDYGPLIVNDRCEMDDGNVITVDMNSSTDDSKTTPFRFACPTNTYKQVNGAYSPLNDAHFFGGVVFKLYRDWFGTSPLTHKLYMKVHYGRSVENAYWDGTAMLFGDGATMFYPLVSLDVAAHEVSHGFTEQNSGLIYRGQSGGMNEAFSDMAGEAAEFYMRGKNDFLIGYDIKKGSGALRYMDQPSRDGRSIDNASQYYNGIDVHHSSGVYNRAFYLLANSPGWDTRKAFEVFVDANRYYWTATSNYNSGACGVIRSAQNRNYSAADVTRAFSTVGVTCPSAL

SMILES | IC50 ([1]; rabbit ACE, read-out: selectivity IC50, ACE) | IC50 (LasB T65I) | IC50 [1]
COc1cc2sc(CNC(=O)C3(CC(=O)O)Cc4ccccc4C3)nc2cc1OCCC[N+](C)(C)C [Compound 12] | > 200000 nM | 216 nM | 
COc1cc2sc(CNC(=O)C3(CC(=O)O)Cc4cc(F)c(F)cc4C3)nc2cc1OCCC[N+](C)(CCO)CCO [Compound 16] |  | 182 nM | > 200000 nM

— publication PMC9926489, “Chemical Optimization of Selective Pseudomonas aeruginosa LasB Elastase Inhibitors and Their Impact on LasB-Mediated Activation of IL-1β in Cellular and Animal Infection Models” (ACS Infectious Diseases, 2023)
